In ChEMBL document CHEMBL5331052, “Discovery of a novel water-soluble, rapid-release triptolide prodrug with improved drug-like properties and high efficacy in human acute myeloid leukemia” (Eur J Med Chem, 2022):
The source made the active and inactive calls. The calls are words filed in the database; no cut-off is given here.

Columns and labels:
[1] = tested on: MV4-11; test: Antiproliferative activity against human MV4-11 cells assessed as cell growth inhibition measured after 48 hrs by CCK8 assay; type: functional, cell-based; conditions: MV4-11, 48 h
[2] = tested on: MV4-11; test: Antitumor activity against human MV4-11 cells xenografted in BALB/c nude mouse assessed as tumor growth inhibition at 180 microg/kg/day, IG measured everyday for 11 days relative to control; type: functional; conditions: MV4-11, po, 264 h, at 180 µg/kg/day, time 11 day, read-out: TGI
[3] = Cmax in Sprague-Dawley rat at 1.0 mg/kg, po administered via oral gavage and measured upto 24 hrs by LC-MS/MS analysis; type: ADME, organism-based; parameters: dose 1 mg/kg, time < 24 hrs, route po; conditions: in vivo
[4] = Tmax in Sprague-Dawley rat at 1.0 mg/kg, po administered via oral gavage and measured upto 24 hrs by LC-MS/MS analysis; type: ADME, organism-based; conditions: in vivo
[5] = AUC (0 to t) in Sprague-Dawley rat at 1.0 mg/kg, po administered via oral gavage and measured upto 24 hrs by LC-MS/MS analysis; type: ADME, organism-based; parameters: dose 1 mg/kg, time < 24 hrs, route po; conditions: in vivo
[6] = tested on: THP-1; test: Antiproliferative activity against human THP-1 cells assessed as inhibition of cell growth measured after 48 hrs by CCK8 assay; type: functional, cell-based; conditions: THP-1, 48 h
[7] = tested on: PBMC; test: Cytotoxicity against human PBMC cells assessed as cell survial at 30 to 300 nM measured after 48 hrs by CCK8 assay; type: toxicity, cell-based; conditions: 0.3 µM, dose 30-300 nM
[8] = Chemical stability of the compound in water assessed as parent compound remaining at 2 mg/ml measured immediately by HPLC analysis; type: physicochemical; conditions: read-out: Stability
[9] = Chemical stability of the compound in water assessed as parent compound remaining at 2 mg/ml measured after 4 hrs by HPLC analysis; type: physicochemical; conditions: read-out: Stability
[10] = tested on: MV4-11; test: Antitumor activity against human MV4-11 cells xenografted in ip dosed BALB/c nude mouse assessed as cell growth inhibition by measuring effect on Ki67 protein expression in tumor administered daily and measured after 28 days by immunohistochemical analysis; type: functional, organism-based; conditions: dose 25-50 µg/kg, time 28.0 day
[11] = Aqueous solubility of compound at 1 to 10 mg/ml by HPLC analysis; type: physicochemical; conditions: water; dose 1-10 mg/ml
[12] = Prodrug conversion in human plasma assessed as triptolide release at 50 to 5000 ng/ml measured for 1 hrs by HPLC analysis; type: ADME, cell-free; conditions: dose 50-5000 ng/ml
[13] = tested on: MV4-11; test: Antitumor activity against human MV4-11 cells xenografted in BALB/c nude mouse assessed as cell growth inhibition by measuring effect on Ki67 protein expression in tumor at 50 microg/kg, ip administered for 20 days in presence of gilteritinib by immunohistochemical analysis; type: functional, organism-based; conditions: dose 50.0 µg/kg, time 20.0 day
[14] = tested on: THP-1; test: Antiproliferative activity against human THP-1 cells assessed as cell growth inhibition measured after 24 hrs by Edu incorporation assay; type: functional, cell-based; conditions: dose 30-120 nM
[15] = tested on: MV4-11; test: Antitumor activity against human MV4-11 cells xenografted in BALB/c nude mouse assessed as complete tumor regression at 100 microg/kg, ip qd measured every 2 days for 12 days; type: functional, organism-based; conditions: dose 100.0 µg/kg, time 12.0 day
[16] = Prodrug conversion in human plasma assessed as (5bS,6aS,7aR,8R,8aS,9aS,9bS,10bS)-8a-isopropyl-10b-methyl-3-oxo-1,2,3,5,5b,6,6a,8,8a,9a,9b,10b-dodecahydrotris(oxireno [2',3':4b,5;2'',3'':6,7;2''',3''':8a,9]phenanthro[1,2-c]furan-8-yl 2-hydroxyacetate intermediate formation measured after 1 hr by HPLC analysis; type: ADME, cell-free
[17] = tested on: MV4-11; test: Antitumor activity against human MV4-11 cells xenografted in BALB/c nude mouse assessed as tumor growth inhibition at 50 microg/kg, ip administered for 20 days in presence of gilteritinib and measured every 2 days relative to control; type: functional; conditions: MV4-11, 480 h, dose 50 µg/kg, time 20 day, read-out: TGI
[18] = tested on: THP-1; test: Potency index, ratio of test compound IC50 to triptolide IC50 for antiproliferative activity against human THP-1 cells assessed as inhibition of cell growth measured after 48 hrs by CCK8 assay; type: functional
[19] = Prodrug conversion in Sprague-Dawley rat plasma assessed as triptolide release at 500 ng/ml measured after 1 hrs by UPLC-MS/MS analysis; type: ADME, cell-free
[20] = Microsomal stability in rat liver microsomes assessed as hepatic clearance; type: ADME, Microsome
[21] = Toxicity in BALB/c nude mouse xenografted with human MV4-11 cells assessed as change in body weight at 180 microg/kg/day, IG measured everyday for 11 days; conditions: in vivo, po, 264 h, dose 180 µg/kg/day, time 11 day
[22] = tested on: MV4-11; test: Potency index, ratio of test compound IC50 to triptolide IC50 for antiproliferative activity against human MV4-11 cells assessed as inhibition of cell growth measured after 48 hrs by CCK8 assay; type: functional
[23] = Toxicity in BALB/c nude mouse xenografted with human THP-1 cells assessed as change in body weight at 0.1 to 1.2 mg/kg, ip qd measured every 2 days for 28 days; type: organism-based; conditions: in vivo, 672 h, dose 0.1-1.2 mg/kg, time 28 day
[24] = tested on: THP-1; test: Antitumor activity against human THP-1 cells xenografted in BALB/c nude mouse assessed as tumor growth inhibition at 100 microg/kg, ip qd measured every 2 days for 28 days relative to control; type: functional; conditions: THP-1, 672 h, dose 100 µg/kg, time 28 day, read-out: TGI
[25] = tested on: MV4-11; test: Antiproliferative activity against human MV4-11 cells assessed as cell growth inhibition measured after 24 hrs by Edu incorporation assay; type: functional, cell-based
[26] = tested on: MV4-11; test: Antitumor activity against human MV4-11 cells xenografted in BALB/c nude mouse assessed as induction of apoptosis by measuring caspase-3 level in tumor at 50 microg/kg, ip administered for 20 days in presence of gilteritinib by immunohistochemical analysis; type: functional, organism-based; conditions: dose 50.0 µg/kg, time 20.0 day
[27] = tested on: MV4-11; test: Antitumor activity against human MV4-11 cells xenografted in BALB/c nude mouse assessed as tumor growth inhibition at 25 microg/kg, ip qd measured every 2 days for 28 days relative to control; type: functional; conditions: MV4-11, 672 h, dose 25 µg/kg, time 28 day, read-out: TGI
[28] = tested on: MV4-11; test: Antitumor activity against human MV4-11 cells xenografted in ip dosed BALB/c nude mouse assessed as induction of apoptosis by measuring increase in cleaved caspase-3 level in tumor administered daily and measured after 28 days by immunohistochemical staining based analysis; type: functional, organism-based; conditions: dose 25-50 µg/kg, time 28.0 day
[29] = Prodrug conversion in human plasma assessed as triptolide release at 1 mg/ml measured after 1 hrs by HPLC analysis; type: ADME, cell-free
[30] = Microsomal stability in rat liver microsomes assessed as half life; type: ADME, Microsome
[31] = tested on: MV4-11; test: Antitumor activity against human MV4-11 cells xenografted in BALB/c nude mouse assessed as tumor growth inhibition at 300 microg/kg/day, IG measured everyday for 11 days relative to control; type: functional; conditions: MV4-11, po, 264 h, at 300 µg/kg/day, time 11 day, read-out: TGI
[32] = Prodrug conversion in human plasma assessed as triptolide release at 50 ug/ml measured after 45 mins by HPLC analysis; type: ADME, cell-free; conditions: 0.75 h, dose 50 µg/ml
[33] = tested on: THP-1; test: Antitumor activity against human THP-1 cells xenografted in BALB/c nude mouse assessed as complete tumor regression at 300 microg/kg, ip qd measured every 2 days for 16 days; type: functional, organism-based; conditions: dose 300.0 µg/kg, time 16.0 day
[34] = Prodrug conversion in Sprague-Dawley rat plasma assessed as triptolide release at 50 ug/ml measured after 30 mins by HPLC analysis; type: ADME, cell-free; conditions: 0.5 h, dose 50 µg/ml
[35] = Microsomal stability in rat liver microsomes assessed as intrinsic clearance; type: ADME, Microsome; conditions: read-out: CLH
[36] = Prodrug conversion in human plasma assessed as (5bS,6aS,7aR,8R,8aS,9aS,9bS,10bS)-8a-isopropyl-10b-methyl-3-oxo-1,2,3,5,5b,6,6a,8,8a,9a,9b,10b-dodecahydrotris(oxireno [2',3':4b,5;2'',3'':6,7;2''',3''':8a,9]phenanthro[1,2-c]furan-8-yl 2-hydroxyacetate intermediate formation by HPLC analysis; type: ADME, cell-free
[37] = Prodrug conversion in human plasma assessed as triptolide release at 500 ng/ml measured after 1 hrs by UPLC-MS/MS analysis; type: ADME, cell-free
[38] = Toxicity in BALB/c nude mouse xenografted with human THP-1 cells assessed as animal death at 2.4 to 4.8 mg/kg, ip qd measured after 2 to 3 days; type: organism-based; conditions: in vivo, dose lower 2.4 mg/kg, time lower 2 day, dose upper 4.8 mg/kg, time upper 3 day
[39] = tested on: THP-1; test: Antitumor activity against human THP-1 cells xenografted in BALB/c nude mouse assessed as cell growth inhibition by measuring effect on Ki67 protein expression in tumor at 0.1 mg/kg, ip administered daily and measured after 28 days by immunohistochemical analysis; type: functional, organism-based; conditions: time 28.0 day
[40] = tested on: THP-1; test: Antitumor activity against human THP-1 cells xenografted in BALB/c nude mouse assessed as induction of apoptosis by measuring increase in cleaved caspase-3 level in tumor at 0.1 mg/kg, ip administered daily and measured after 28 days by immunohistochemical staining based analysis; type: functional, organism-based; conditions: time 28.0 day

With `CC(C)[C@]12O[C@H]1[C@@H]1O[C@]13[C@]1(O[C@H]1C[C@H]1C4=C(CC[C@@]13C)C(=O)OC4)[C@@H]2O` [TRIPTOLIDE] the IC50 [1] was 12 nM, the inhibition in vivo at 0.18 mg/kg/day [2] was 91.5% and the Cmax [3] was 15.9 ng/mL. For the same molecule, the Tmax [4] was 26.4 min, the AUC(0-t) at 24 h [5] was 31.9 ng·h/mL and the IC50 [6] was 7.04 nM.

With `CC(C)[C@]12O[C@H]1[C@@H]1O[C@]13[C@]1(O[C@H]1C[C@H]1C4=C(CC[C@@]13C)C(=O)OC4)[C@@H]2OC(=O)COC(=O)CN1CCOCC1.Cl` the IC50 [1] was 46 nM, the Activity [7] was “Non-Toxic” and the remaining at 0 h, 2 mg/ml [8] was 99.4%. For the same molecule, the remaining at 4 h, 2 mg/ml [9] was 99.1%, the Activity [10] was “Dose-Dependent Effect” and the solubility [11] was 6130 µg/mL. For the same molecule, the Drug metabolism [12] was “Metabolite_Detected”, the Activity [13] was “Active” and the Activity [14] was “Dose-Dependent Effect”. For the same molecule, the Activity [15] was “Active”, the Drug metabolism [16] was “Metabolite_Notdetected” and the inhibition in vivo at 0.05 mg/kg [17] was 78.1%. For the same molecule, the “Ratio IC50” value [18] was 2, the Drug metabolism [19] was “Metabolite_Detected” and the CLhep predicted [20] was 65.6 mL/min/kg. For the same molecule, the Activity [21] was “Non-Toxic”, the “Ratio IC50” value [22] was 2 and the Activity [23] was “Non-Toxic”. For the same molecule, the inhibition in vivo at 0.1 mg/kg [24] was 93.9%, the Activity [25] was “Dose-Dependent Effect” and the Activity [26] was “Active”. For the same molecule, the inhibition in vivo at 0.025 mg/kg [27] was 54.3%, the Activity [28] was “Dose-Dependent Effect” and the Drug metabolism [29] was “Metabolite_Detected”. For the same molecule, the half-life [30] was 8.64 min, the IC50 [6] was 14.8 nM and the inhibition in vivo at 0.3 mg/kg/day [31] was 93.5%. For the same molecule, the Drug metabolism [32] was “Metabolite_Detected”, the Activity [33] was “Active” and the Drug metabolism [34] was “Metabolite_Detected”. The CLint scaled [35] was 288 mL/min/kg, the Drug metabolism [36] was “Metabolite_Detected” and the Drug metabolism [37] was “Metabolite_Detected”. For the same molecule, the Activity [38] was “Toxic”, the Activity [39] was “Active” and the Activity [40] was “Active”.

Work on `CC(C)[C@]12O[C@H]1[C@@H]1O[C@]13[C@]1(O[C@H]1C[C@H]1C4=C(CC[C@@]13C)C(=O)OC4)[C@@H]2OC(=O)COC(=O)CN1CCN(C)CC1.Cl` yielded a remaining at 0 h, 2 mg/ml [8] of 96.8%, a remaining at 4 h, 2 mg/ml [9] of 96.7% and a solubility [11] of 3820 µg/mL. The Drug metabolism [34] was “Metabolite_Detected”.
